Measurements: US10344025B2, “GLS1 inhibitors for treating disease” (Board of Regents, The University of Texas System, priority 2014, dated 2019)
Read-outs that look alike come from different tables or passages of the source.

Experiments:
[1] = biological target: purified recombinant human GAC (GLS1) (Homo sapiens (Human), UniProt O94925); assay: GLS1 Enzymatic Activity Assay (dual-coupled enzymatic assay, resorufin/Amplex UltraRed readout); type: biochemical;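 further: glutamate from GAC coupled via glutamate oxidase and peroxidase to resorufin, read as fluorescence (ex 530, em 590 nm) kinetically or at 20 min, four-parameter logistic IC50 fit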
Sequence of purified recombinant human GAC (GLS1) (O94925 other isoform, or with tags, fused parts or gaps): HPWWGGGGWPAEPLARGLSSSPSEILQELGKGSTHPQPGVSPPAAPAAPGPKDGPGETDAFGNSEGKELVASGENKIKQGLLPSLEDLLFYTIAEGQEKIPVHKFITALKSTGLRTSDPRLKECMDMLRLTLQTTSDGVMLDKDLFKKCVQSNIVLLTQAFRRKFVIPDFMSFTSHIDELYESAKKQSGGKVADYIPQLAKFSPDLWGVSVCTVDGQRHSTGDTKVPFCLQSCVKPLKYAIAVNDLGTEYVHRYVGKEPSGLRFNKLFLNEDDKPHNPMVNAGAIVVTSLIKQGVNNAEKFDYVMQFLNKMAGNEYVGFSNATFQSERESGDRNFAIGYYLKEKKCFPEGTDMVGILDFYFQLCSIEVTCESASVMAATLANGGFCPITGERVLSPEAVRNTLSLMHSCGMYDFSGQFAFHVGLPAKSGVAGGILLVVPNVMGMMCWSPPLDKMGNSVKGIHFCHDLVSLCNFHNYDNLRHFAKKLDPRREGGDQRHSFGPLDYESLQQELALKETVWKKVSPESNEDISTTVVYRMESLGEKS

A549 cells = assay: Proliferation Assay (A549 viability, Cell Titer Fluor, 72 hours); type: cell-based
Summary of the method: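 A549 cells seeded at 1000 cells/well, rested 24 h, then exposed to compound in 0.5% DMSO for 72 h at 37 °C. Viability read by Cell Titer Fluor fluorescence; IC50 from four-parameter logistic fit.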

| Compound | IC50 [1] | EC50 (A549 cells; Homo sapiens, A549, 72 h) | EC50 (A549 cells) |
| --- | --- | --- | --- |
| O=C(NCc1cccc(OC(F)(F)F)c1)c1cn(CCCCn2cc(C(=O)NC[C@@H](O)c3ccccc3)nn2)nn1 [Example 138, N-[(2S)-2-hydroxy-2-phenylethyl]-1-{4-[4-({[3-(trifluoromethoxy)phenyl]methyl}carbamoyl)-1H-1,2,3-triazol-1-yl]butyl}-1H-1,2,3-triazole-4-carboxamide] | 100 to 500 nM | 100 to 500 nM | – |
| O=C(NCc1cc(C(F)(F)F)ccn1)c1cn(CCCCn2cc(C(=O)NCC3CCCCO3)nn2)nn1 (stereo not shown) [Example 114] | 500 to 5000 nM | 500 to 5000 nM | – |
| CNC(=O)c1cn(CCC(F)Cn2cc(C(=O)NCc3cncc4ccccc34)nn2)nn1 (stereo not shown) [Example 171, 1-(3-fluoro-4-{4-[(isoquinolin-4-ylmethyl)carbamoyl]-1H-1,2,3-triazol-1-yl}butyl)-N-methyl-1H-1,2,3-triazole-4-carboxamide] | 100 to 500 nM | 500 to 5000 nM | – |
| CNC(=O)c1cn(CC(F)CCc2ccc(NC(=O)Cc3cc(OC4CCC4)ccn3)nn2)nn1 (stereo not shown) [Example 251, 1-(4-(6-(2-(4-cyclobutoxypyridin-2-yl)acetamido)pyridazin-3-yl)-2-fluorobutyl)-N-methyl-1H-1,2,3-triazole-4-carboxamide 2,2,2-trifluoroacetate] | < 100 nM | < 100 nM | – |
| O=C(NCc1cccc(OC(F)(F)F)c1)c1cn(CCCCc2nnc(C(=O)NCCN3CCCC3)s2)nn1 [Example 49, N-[2-(pyrrolidin-1-yl)ethyl]-5-{4-[4-({[3-(trifluoromethoxy)phenyl]methyl}carbamoyl)-1H-1,2,3-triazol-1-yl]butyl}-1,3,4-thiadiazole-2-carboxamide] | 500 to 5000 nM | > 5000 nM | – |
| O=C(NCc1ccnnc1)c1cn(CCCCn2cc(C(=O)NCc3cccc(OC(F)(F)F)c3)nn2)nn1 [Example 127, 1-(4-{4-[(pyridazin-4-ylmethyl)carbamoyl]-1H-1,2,3-triazol-1-yl}butyl)-N-{[3-(trifluoromethoxy)phenyl]methyl}-1H-1,2,3-triazole-4-carboxamide] | 100 to 500 nM | 500 to 5000 nM | – |
| CNC(=O)c1cn(CCCCc2ccc(NC(=O)Cc3cc(-c4ccccc4C(F)(F)F)ccn3)nn2)nn1 [Example 605, N-methyl-1-(4-(6-(2-(4-(2-(trifluoromethyl)phenyl)pyridin-2-yl)acetamido)pyridazin-3-yl)butyl)-1H-1,2,3-triazole-4-carboxamide] | < 100 nM | < 100 nM | – |
| Cc1ccc(CNC(=O)c2cn(CCCCc3nnc(C(=O)NCc4cccc(OC(F)(F)F)c4)s3)nn2)cn1 [Example 61] | < 100 nM | < 100 nM | – |
| O=C(CN1CC(F)C1)Nc1cn(CCCCn2cc(C(=O)NCc3cc(OC(F)(F)F)ccc3F)nn2)nn1 [Example 350, N-{[2-fluoro-5-(trifluoromethoxy)phenyl]methyl}-1-(4-{4-[2-(3-fluoroazetidin-1-yl)acetamido]-1H-1,2,3-triazol-1-yl}butyl)-1H-1,2,3-triazole-4-carboxamide] | 100 to 500 nM | 100 to 500 nM | – |
| O=C(Cc1ccccn1)Nc1cn(CCCCn2cc(C(=O)NCc3cc(OC(F)(F)F)ccc3F)nn2)nn1 [Example 337, N-{[2-fluoro-5-(trifluoromethoxy)phenyl]methyl}-1-(4-{4-[2-(pyridin-2-yl)acetamido]-1H-1,2,3-triazol-1-yl}butyl)-1H-1,2,3-triazole-4-carboxamide] | < 100 nM | < 100 nM | – |
| CNC(=O)c1cn(C[C@@H](F)CCc2nnc(NC(=O)Cc3cccc(OC(F)(F)F)c3)s2)nn1 [Example 193, (S)-1-(2-fluoro-4-(5-(2-(3-(trifluoromethoxy)phenyl)acetamido)-1,3,4-thiadiazol-2-yl)butyl)-N-methyl-1H-1,2,3-triazole-4-carboxamide] | < 100 nM | – | 500 to 5000 nM |
| O=C(NCc1ccc(C(F)(F)F)cn1)c1cn(CCC(F)Cn2cc(C(=O)NCc3cccc(OC(F)(F)F)c3)nn2)nn1 (stereo not shown) [Example 433, 1-{2-fluoro-4-[4-({[5-(trifluoromethyl)pyridin-2-yl]methyl}carbamoyl)-1H-1,2,3-triazol-1-yl]butyl}-N-{[3-(trifluoromethoxy)phenyl]methyl}-1H-1,2,3-triazole-4-carboxamide] | < 100 nM | < 100 nM | – |
| O=C(NCc1ccc(C2CC2)nc1)c1cn(CC(F)CCc2nnc(C(=O)NCc3cccc(C(F)(F)F)c3)s2)nn1 (stereo not shown) [Example 481, 5-[4-(4-{[(6-cyclopropylpyridin-3-yl)methyl]carbamoyl}-1H-1,2,3-triazol-1-yl)-3-fluorobutyl]-N-{[3-(trifluoromethyl)phenyl]methyl}-1,3,4-thiadiazole-2-carboxamide] | < 100 nM | < 100 nM | – |
| CC(=O)Nc1nnc(CCC(F)Cn2cc(C(=O)NCc3cc(C(F)(F)F)ccn3)nn2)s1 (stereo not shown) [Example 567, 1-(4-(5-acetamido-1,3,4-thiadiazol-2-yl)-2-fluorobutyl)-N-((4-(trifluoromethyl)pyridin-2-yl)methyl)-1H-1,2,3-triazole-4-carboxamide] | < 100 nM | 100 to 500 nM | – |
| CNC(=O)c1cn(CCC(F)Cn2cc(C(=O)NCc3ccccn3)nn2)nn1 (stereo not shown) [Example 163, 1-(3-fluoro-4-{4-[(pyridin-2-ylmethyl)carbamoyl]-1H-1,2,3-triazol-1-yl}butyl)-N-methyl-1H-1,2,3-triazole-4-carboxamide] | 500 to 5000 nM | 500 to 5000 nM | – |
| O=C(Cc1cccc(OC(F)(F)F)c1)Nc1nnc(CCC(F)Cn2cc(C(=O)NCC3CC3)nn2)s1 (stereo not shown) [Example 535, N-(cyclopropylmethyl)-1-[2-fluoro-4-(5-{2-[3-(trifluoromethoxy)phenyl]acetamido}-1,3,4-thiadiazol-2-yl)butyl]-1H-1,2,3-triazole-4-carboxamide] | < 100 nM | 100 to 500 nM | – |

Next, values leading:

| IC50 [1] | EC50 (A549 cells; Homo sapiens, A549, 72 h) | EC50 (A549 cells) | Compound |
| --- | --- | --- | --- |
| < 100 nM | 100 to 500 nM | – | COc1ccc(CNC(=O)c2cn(CCCCc3nnc(NC(=O)Cc4cccc(OC(F)(F)F)c4)s3)nn2)c(OC)c1 [Example 22, N-[(2,4-dimethoxyphenyl)methyl]-1-[4-(5-{2-[3-(trifluoromethoxy)phenyl]acetamido}-1,3,4-thiadiazol-2-yl)butyl]-1H-1,2,3-triazole-4-carboxamide] |
| < 100 nM | < 100 nM | – | O=C(Cc1cccnc1)Nc1ccc(CCCCn2cc(C(=O)NCc3cc(OC(F)(F)F)ccc3F)nn2)nn1 [Example 589, N-(2-fluoro-5-(trifluoromethoxy)benzyl)-1-(4-(6-(2-(pyridin-3-yl)acetamido)pyridazin-3-yl)butyl)-1H-1,2,3-triazole-4-carboxamide] |
| < 100 nM | < 100 nM | – | O=C(NCc1cccc(OC(F)(F)F)c1)c1cn(CCC(F)Cn2cc(C(=O)NCc3ccc(C(F)(F)F)cn3)nn2)nn1 (stereo not shown) [Example 431, 1-{2-fluoro-4-[4-({[3-(trifluoromethoxy)phenyl]methyl}carbamoyl)-1H-1,2,3-triazol-1-yl]butyl}-N-{[5-(trifluoromethyl)pyridin-2-yl]methyl}-1H-1,2,3-triazole-4-carboxamide] |
| < 100 nM | 100 to 500 nM | – | O=C(CN1CC(F)C1)Nc1cn(CC(F)CCn2cc(C(=O)NCc3cccc(OC(F)(F)F)c3)nn2)nn1 (stereo not shown) [Example 371, 1-(3-fluoro-4-{4-[2-(3-fluoroazetidin-1-yl)acetamido]-1H-1,2,3-triazol-1-yl}butyl)-N-{[3-(trifluoromethoxy)phenyl]methyl}-1H-1,2,3-triazole-4-carboxamide] |
| < 100 nM | < 100 nM | – | O=C(NCc1ccc(C(F)(F)F)nc1)c1cn(CCCCn2cc(C(=O)NCc3cncc(C(F)(F)F)c3)nn2)nn1 [Example 143, N-{[5-(trifluoromethyl)pyridin-3-yl]methyl}-1-{4-[4-({[6-(trifluoromethyl)pyridin-3-yl]methyl}carbamoyl)-1H-1,2,3-triazol-1-yl]butyl}-1H-1,2,3-triazole-4-carboxamide] |
| < 100 nM | < 100 nM | – | Cc1ccc(CNC(=O)c2cn(CCC(F)Cn3cc(C(=O)NCc4cc(OC(F)(F)F)ccc4F)nn3)nn2)cn1 (stereo not shown) [Example 370, 1-{3-fluoro-4-[4-({[2-fluoro-5-(trifluoromethoxy)phenyl]methyl}carbamoyl)-1H-1,2,3-triazol-1-yl]butyl}-N-[(6-methylpyridin-3-yl)methyl]-1H-1,2,3-triazole-4-carboxamide] |
| < 100 nM | < 100 nM | – | O=C(NCc1cc(C(F)(F)F)ccn1)c1cn(CCC(F)Cn2cc(C(=O)NCc3cc(OC(F)(F)F)ccc3F)nn2)nn1 (stereo not shown) [Example 432, 1-{2-fluoro-4-[4-({[4-(trifluoromethyl)pyridin-2-yl]methyl}carbamoyl)-1H-1,2,3-triazol-1-yl]butyl}-N-{[-fluoro-5-(trifluoromethoxy)phenyl]methyl}-1H-1,2,3-triazole-4-carboxamide] |
| < 100 nM | < 100 nM | – | Cn1cnc(CC(=O)Nc2nnc(CCC(F)Cn3cc(C(=O)NCc4cc(OC(F)(F)F)ccc4F)nn3)s2)c1 (stereo not shown) [Example 576, 1-(2-fluoro-4-(5-(2-(1-methyl-1H-imidazol-4-yl)acetamido)-1,3,4-thiadiazol-2-yl)butyl)-N-(2-fluoro-5-(trifluoromethoxy)benzyl)-1H-1,2,3-triazole-4-carboxamide] |
| < 100 nM | < 100 nM | – | O=C(Cc1cccc(OC(F)(F)F)c1)Nc1cn(CCC(F)Cn2cc(C(=O)NCc3ncccc3F)nn2)nn1 (stereo not shown) [Example 406, 1-[2-fluoro-4-(4-{2-[3-(trifluoromethoxy)phenyl]acetamido}-1H-1,2,3-triazol-1-yl)butyl]-N-[(3-fluoropyridin-2-yl)methyl]-1H-1,2,3-triazole-4-carboxamide] |
| < 100 nM | < 100 nM | – | O=C(Cc1cc(OC(F)(F)F)ccc1F)Nc1cn(CCCCn2cc(C(=O)NCc3cc(C(F)(F)F)ccn3)nn2)nn1 [Example 413, 1-[4-(4-{2-[2-fluoro-5-(trifluoromethoxy)phenyl]acetamido}-1H-1,2,3-triazol-1-yl)butyl]-N-{[4-(trifluoromethyl)pyridin-2-yl]methyl}-1H-1,2,3-triazole-4-carboxamide] |
